This is an account of results in article PMC4277619, “Design, Synthesis and Cytotoxicity Evaluationof New 1,2-diaryl-4, 5, 6, 7-Tetrahydro-1H-benzo[d] Imidazolesas Tubulin Inhibitors” (Iranian Journal of Pharmaceutical Research : IJPR, 2015).

One data set has as its system T47D. As to the kind of experiment: MTT assay, cytotoxicity against T47D breast cancer cells. In kind it is cell-based, human. The note with it: for IC50: Homo sapiens, T47D cells, 24 h incubation, MTT; for SI T47D: selectivity index = IC50 Fibroblast / IC50 T47D. The procedure: (§1) Fibroblast, MCF7 (human breast cancer), HEPG2 (human liver carcinoma), A549 (human lung cancer) and T47D (human breast cancer) cell lines were purchased from Pasteur Institute, Tehran, Iran. The cells were grown in RPMI1640 medium at 37 °C under 5% CO2 supplemented with 10% heat inactivated fetal bovine serum (FBS), 100 U/mL penicillin and 100 µg/mL streptomycin. Cell viability was evaluated using MTT method which is based on the reduction of 3-(4,5-dimethylthiazol-2-yl)-2,5-diphenyltetrazolium bromide (MTT) dye to purple formazan crystals by mitochondrial succinate dehydrogenase enzyme in living cells. The cells were seeded into 96-well plates at a concentration of 6000 cells/well and allowed to incubate for 24 h. The medium was then discarded and different concentrations of the test compounds dissolved in complete medium, were added to each well. After further incubation for 24 h at 37 °C, the medium was aspirated and 100 µL MTT (2 mg/mL) was added to the wells and incubated for 3 h at 37 °C. The produced formazan crystals were dissolved in 100 µL of DMSO. Plates were incubated for 20 min at 37 °C and the optical densities were read at 570 nm with a reference wavelength of 630 nm as background using a spectrophotometer plate reader (Infinite® M200, TECAN). Colchicine was used as positive control and DMSO as the solvent of the test compounds and its final concentration was less than 0.2%. IC50 was calculated by calibration curve using Prism software. All the tests were performed in triplicates.
(Tetrazolium dyes change colour on reduction, which living cells bring about.)

For a further data set, the system named is Fibroblast. Description: MTT assay, cytotoxicity against normal fibroblast cells. In kind it is cell-based. The conditions noted are these: Homo sapiens, 24 h incubation. The procedure:
as §1

Another data set deals with A549. As to the kind of experiment: MTT assay, cytotoxicity against A549 lung cancer cells. Format: cell-based, human. The conditions noted are these: for IC50: Homo sapiens, A549 cells, 24 h incubation, MTT; for SI A549: selectivity index = IC50 Fibroblast / IC50 A549. On the procedure: as §1
For another data set, the system named is HEPG2. As to the kind of experiment: MTT assay, cytotoxicity against HEPG2 liver carcinoma cells. Format: cell-based, human. The note with it: for IC50: Homo sapiens, HEPG2 cells, 24 h incubation, MTT; for SI HEPG2: selectivity index = IC50 Fibroblast / IC50 HEPG2. The procedure: as §1
Another data set has as its system MCF-7. Description: MTT assay, cytotoxicity against MCF-7 breast cancer cells. Format: cell-based, human. The conditions noted are these: for IC50: Homo sapiens, MCF7, MCF-7 cells, 24 h incubation, MTT; for SI MCF-7: selectivity index = IC50 Fibroblast / IC50 MCF-7. The procedure: as §1

A value given as a limit tells only on which side of the number the result lay.

On to `COc1ccc(-n2c(-c3cc(OC)c(OC)c(OC)c3)nc3c2CCCC3)cc1` [Compound 7a, 1-(4-Methoxyphenyl)-2-(3,4,5-trimethoxyphenyl)-4,5,6,7-tetrahydro-1H-benzoimidazole], for which the melting point fell in the range of 110 to 111 °C. In the data set with T47D, the IC50 was determined as 41.1 µM and the “SI T47D” value was 0.69. For the same compound, in the data set on Fibroblast, inhibition was half-maximal at 28.5 µM (IC50). Moreover, in the data set on A549, it took 83.6 µM to reach half-maximal inhibition (IC50) and the “SI A549” value was 0.34. Further, in the data set on HEPG2, half-maximal inhibition (IC50) required 22.5 µM and the “SI HEPG2” value came out at 1.26. For the same compound, in the data set on MCF-7, the IC50 came to 54.8 µM and the “SI MCF-7” value is listed as 0.52.

As for `COc1cccc(-n2c(-c3cc(OC)c(OC)c(OC)c3)nc3c2CCCC3)c1` [Compound 7b, 1-(3-Methoxyphenyl)-2-(3,4,5-trimethoxyphenyl)-4,5,6,7-tetrahydro-1H-benzoimidazole], the IC50 was greater than 100 µM in the data set on T47D; greater than 100 µM with Fibroblast; 30.4 µM with A549; greater than 100 µM with HEPG2; greater than 100 µM in the data set with MCF-7.

For `COc1cc(-c2nc3c(n2-c2ccc(Cl)cc2)CCCC3)cc(OC)c1OC` [Compound 7e, 1-(4-Chlorophenyl)-2-(3,4,5-trimethoxyphenyl)-4,5,6,7-tetrahydro-1H-benzoimidazole], the melting point was in the range of 157 to 158 °C. In the data set with T47D, the IC50 was determined as 34.5 µM and the “SI T47D” value was found to be 1.6. Moreover, the IC50 with Fibroblast is 54 µM. In the data set with A549, the IC50 worked out at 87 µM and the “SI A549” value was 0.62. Moreover, in the data set with HEPG2, the IC50 is 15.6 µM and the “SI HEPG2” value was 3.46. In the data set on MCF-7, half-maximal inhibition (IC50) required 36.4 µM and the “SI MCF-7” value is listed as 1.48.

Consider `COc1cc(-c2nc3c(n2-c2cccc(Cl)c2)CCCC3)cc(OC)c1OC` [Compound 7f, 1-(3-Chlorophenyl)-2-(3,4,5-trimethoxyphenyl)-4,5,6,7-tetrahydro-1H-benzoimidazole], for which the IC50 was 58.6 µM in the data set on T47D; 87.3 µM with Fibroblast; greater than 100 µM in the data set with A549; 43.8 µM with HEPG2; 77.9 µM with MCF-7. For the same compound, the “SI T47D” value with T47D is reported as 1.5. For the same compound, the “SI HEPG2” value in the data set on HEPG2 was 2. In addition, the “SI MCF-7” value in the data set with MCF-7 is reported as 1.12.

`COc1cc(-c2nc3c(n2-c2ccc(F)cc2)CCCC3)cc(OC)c1OC` [Compound 7d, 1-(4-Fluorophenyl)-2-(3,4,5-trimethoxyphenyl)-4,5,6,7-tetrahydro-1H-benzoimidazole] came in with a melting point of 152 to 154 °C. Moreover, in the data set on T47D, the IC50 was found to be 30 µM and the “SI T47D” value came to 2. This compound also came in with an IC50 with Fibroblast of 59.5 µM. In addition, in the data set with A549, the IC50 amounted to 86.5 µM and the “SI A549” value amounted to 0.68. For the same compound, in the data set with HEPG2, inhibition was half-maximal at 19.4 µM (IC50) and the “SI HEPG2” value was determined as 3.06. For the same compound, in the data set on MCF-7, the IC50 was 62.3 µM and the “SI MCF-7” value was 0.95.

Regarding `COc1cc(-c2nc3c(n2-c2ccc(O)cc2)CCCC3)cc(OC)c1OC` [Compound 7c, 4-[2-(3,4,5-Trimethoxyphenyl)-4,5,6,7-tetrahydro-1H-benzoimidazole-1-yl]-phenol], the melting point fell in the range of 259 to 260 °C. In the data set on T47D, it took 41.2 µM to reach half-maximal inhibition (IC50) and the “SI T47D” value amounted to 2. The same compound returned an IC50 with Fibroblast of 80.8 µM. The IC50 with A549 was greater than 100 µM. In addition, in the data set on HEPG2, the IC50 was 19.6 µM and the “SI HEPG2” value is listed as 4.11. The same compound had an IC50 with MCF-7 greater than 100 µM.

Broadly, the IC50 is the concentration that gives 50% inhibition. A high value points to weaker potency. As a reminder, the melting point is the temperature of the solid-liquid transition.
